Laboratory results as given in US20130109693A1, “DERIVATIVES OF PYRIDO [3,2-D] PYRIMIDINE, METHODS FOR PREPARATION THEREOF AND THERAPEUTIC USES THEREOF” (UNIVERSITE D'ORLEANS, priority 2010, published 2013).

SMILES	melting point
Clc1cnc2c(-c3ccccc3)nc(-c3ccccc3)nc2c1 [Compound 4, 7-Chloro-2,4-diphenyl-pyrido[3,2-d]pyrimidine]	120 to 121 °C
COc1ccc(-c2nc(-c3ccccc3)c3ncc(Cl)cc3n2)cc1 [Compound 5, 7-Chloro-2-(4-methoxyphenyl)-4-phenyl-pyrido[3,2-d]pyrimidine]	193 to 194 °C
COc1cccc(-c2nc(-c3ccccc3)c3ncc(Cl)cc3n2)c1 [Compound 6, 7-Chloro-2-(3-methoxyphenyl)-4-phenyl-pyrido[3,2-d]pyrimidine]	112 to 113 °C
COc1ccccc1-c1nc(-c2ccccc2)c2ncc(Cl)cc2n1 [Compound 7, 7-Chloro-2-(2-methoxyphenyl)-4-phenyl-pyrido[3,2-d]pyrimidine]	116 to 117 °C
COc1ccc(-c2cnc3c(-c4ccccc4)nc(-c4cccc(OC)c4)nc3c2)cc1 [Compound 8, 2-(3-Methoxyphenyl)-7-(4-methoxyphenyl)-4-phenyl-pyrido[3,2-d]-pyrimidine]	147 to 148 °C
COc1cccc(-c2nc(-c3ccccc3)c3ncc(-c4ccc(C(C)=O)cc4)cc3n2)c1 [Compound 9, 7-(4-Acetylphenyl)-2-(3-methoxyphenyl)-4-phenyl-pyrido[3,2-d]pyrimidine]	133 to 134 °C
COc1cccc(-c2nc(-c3ccccc3)c3ncc(-c4ccco4)cc3n2)c1 [Compound 12, 7-(2-Furyl)-2-(3-methoxyphenyl)-4-phenyl-pyrido[3,2-d]pyrimidine]	131 to 132 °C
COc1cccc(-c2nc(-c3ccccc3)c3ncc(-c4cccnc4)cc3n2)c1 [Compound 13, 2-(3-Methoxyphenyl)-4-phenyl-7-(3-pyridyl)-pyrido[3,2-d]pyrimidine]	134 to 135 °C
COc1cccc(-c2nc(-c3ccccc3)c3ncc(-c4csc5ccccc45)cc3n2)c1 [Compound 14, 7-(3-Benzothienyl)-2-(3-methoxyphenyl)-4-phenyl-pyrido[3,2-d]pyrimidine]	112 to 113 °C
COc1cccc(-c2nc(-c3ccccc3)c3ncc(-c4cccs4)cc3n2)c1 [Compound 15, 2-(3-Methoxyphenyl)-4-phenyl-7-(2-thienyl)-pyrido[3,2-d]pyrimidine]	140 to 141 °C
Oc1cccc(-c2ncc3ncc(Cl)cc3n2)c1 [Compound 18, 7-Chloro-2-(3-hydroxyphenyl)-pyrido[3,2-d]pyrimidine]	252 to 253 °C
Oc1ccccc1-c1ncc2ncc(Cl)cc2n1 [Compound 19, 7-Chloro-2-(2-hydroxyphenyl)-pyrido[3,2-d]pyrimidine]	211 to 212 °C
Oc1ccc(-c2ncc3ncc(-c4ccc(S)cc4)cc3n2)cc1 [Compound 27, 2-(4-Hydroxyphenyl)-7-(4-mercaptophenyl)-pyrido[3,2-d]pyrimidine]	222 to 223 °C
N#Cc1ccc(-c2cnc3cnc(-c4ccc(O)cc4)nc3c2)cc1 [Compound 28, 2-(4-Hydroxyphenyl)-7-(4-cyanophenyl)-pyrido[3,2-d]pyrimidine]	313 to 314 °C
N#Cc1cccc(-c2cnc3cnc(-c4ccc(O)cc4)nc3c2)c1 [Compound 29, 2-(4-Hydroxyphenyl)-7-(3-cyanophenyl)-pyrido[3,2-d]pyrimidine]	> 268 °C
Oc1ccc(-c2cnc3cnc(-c4cccc(O)c4)nc3c2)cc1 [Compound 30, 2-(3-Hydroxyphenyl)-7-(4-hydroxyphenyl)-pyrido[3,2-d]pyrimidine]	> 268 °C
Oc1ccc(-c2cnc3cnc(-c4ccccc4O)nc3c2)cc1 [Compound 31, 2-(2-Hydroxyphenyl)-7-(4-hydroxyphenyl)-pyrido[3,2-d]pyrimidine]	> 268 °C
Oc1ccc(-c2ncc3ncc(-c4ccoc4)cc3n2)cc1 [Compound 36, 2-(4-Hydroxyphenyl)-7-(3-furyl)-pyrido[3,2-d]pyrimidine]	> 268 °C
O=Cc1ccc(-c2cnc3cnc(-c4ccc(O)cc4)nc3c2)cc1 [Compound 42, 2-(4-Hydroxyphenyl)-7-(4-formylphenyl)-pyrido[3,2-d]pyrimidine]	> 268 °C
COc1cc(O)ccc1-c1cnc2cnc(-c3ccc(O)cc3)nc2c1 [Compound 43, 2-(4-hydroxyphenyl)-7-(2-methoxy-4-hydroxyphenyl)-pyrido[3,2-d]pyrimidine]	207 to 208 °C
O=Cc1cccc(-c2cnc3cnc(-c4ccc(O)cc4)nc3c2)c1 [Compound 44, 2-(4-Hydroxyphenyl)-7-(3-formylphenyl)-pyrido[3,2-d]pyrimidine]	266 °C

SMILES	melting point
OCc1cccc(-c2cnc3cnc(-c4ccc(O)cc4)nc3c2)c1 [Compound 45, 2-(4-Hydroxyphenyl)-7-(3-hydroxymethylphenyl)-pyrido[3,2-d]pyrimidine]	232 °C
Oc1ccc(-c2ncc3ncc(Nc4ccncc4)cc3n2)cc1 [Compound 55, 2-(4-Hydroxyphenyl)-7-(4-pyridinylamino)-pyrido[3,2-d]pyrimidine]	> 268 °C
Oc1ccc(-c2ncc3ncc(Nc4ccccn4)cc3n2)cc1 [Compound 57, 2-(4-Hydroxyphenyl)-7-(2-pyridinylamino)-pyrido[3,2-d]pyrimidine]	> 268 °C
Oc1ccc(Nc2cnc3cnc(-c4ccc(O)cc4)nc3c2)cc1 [Compound 58, 2-(4-Hydroxyphenyl)-7-(4-hydroxyphenylamino)-pyrido[3,2-d]pyrimidine]	168 to 170 °C
COCOc1ccc(-c2ncc3ncc(Cl)cc3n2)cc1 [Compound 64, 7-Chloro-2-(4-methoxymethoxy-phenyl)-pyrido[3,2-d]pyrimidine]	> 268 °C
COCOc1ccc(-c2ncc3ncc(NC(=O)c4cccnc4)cc3n2)cc1 [Compound 65, N-[2-(4-Methoxymethoxy-phenyl)-pyrido[3,2-d]pyrimidin-7-yl]-nicotinamide]	232 °C
COCOc1ccc(-c2ncc3ncc(N4CCCCC4=O)cc3n2)cc1 [Compound 66, 1-[2-(4-Methoxymethoxy-phenyl)-pyrido[3,2-d]pyrimidin-7-yl]-piperidin-2-one]	202 to 204 °C
COCOc1ccc(-c2ncc3ncc(N4CCNCC4=O)cc3n2)cc1 [Compound 67, 1-[2-(4-Methoxymethoxy-phenyl)-pyrido[3,2-d]pyrimidin-7-yl]-piperazin-2-one]	200 to 202 °C
O=C(Nc1cnc2cnc(-c3ccc(O)cc3)nc2c1)c1cccnc1 [Compound 68, N-[2-(4-Hydroxy-phenyl)-pyrido[3,2-d]pyrimidin-7-yl]nicotinamide]	226 to 228 °C
O=C1CCCCN1c1cnc2cnc(-c3ccc(O)cc3)nc2c1 [Compound 69, 1-[2-(4-Hydroxy-phenyl)-pyrido[3,2-d]pyrimidin-7-yl]-piperidin-2-one]	268 to 270 °C
O=C1CNCCN1c1cnc2cnc(-c3ccc(O)cc3)nc2c1 [Compound 70, 1-[2-(4-Hydroxy-phenyl)-pyrido[3,2-d]pyrimidin-7-yl]-piperazin-2-one]	> 268 °C
O=C(Nc1cnc2cnc(-c3ccc(O)cc3)nc2c1)c1ccncc1 [Compound 71, N-[2-(4-Hydroxy-phenyl)-pyrido[3,2-d]pyrimidin-7-yl]isonicotinamide]	230 to 232 °C
O=C1CCCN1c1cnc2cnc(-c3ccc(O)cc3)nc2c1 [Compound 72, 1-[2-(4-Hydroxy-phenyl)-pyrido[3,2-d]pyrimidin-7-yl]-pyrrolidin-2-one]	> 268 °C
COCOc1ccc(-c2ncc3ccc(-c4csc(CN5CCCCC5)c4)nc3n2)cc1 [Compound 75, 2-(4-Methoxymethoxy-phenyl)-7-(5-piperidin-1-ylmethyl-thiophen-3-yl)-pyrido[2,3-d]pyrimidine]	> 268 °C
COCOc1ccc(-c2ncc3ccc(-c4csc(CN5CCOCC5)c4)nc3n2)cc1 [Compound 76, 2-(4-Methoxymethoxy-phenyl)-7-(5-morpholin-4-ylmethyl-thiophen-3-yl)-pyrido[2,3-d]pyrimidine]	> 268 °C
COCOc1ccc(-c2ncc3ccc(-c4csc(CN5CCN(C)CC5)c4)nc3n2)cc1 [Compound 77, 2-(4-Methoxymethoxy-phenyl)-7-[5-(4-methyl-piperazin-1-ylmethyl)-thiophen-3-yl]-pyrido[2,3-d]pyrimidine]	> 268 °C
Oc1ccc(-c2ncc3ccc(-c4csc(CN5CCCCC5)c4)nc3n2)cc1 [Compound 78, 4-[7-(5-Piperidin-1-ylmethyl-thiophen-3-yl)-pyrido[2,3-d]pyrimidin-2-yl]-phenol]	> 268 °C
Oc1ccc(-c2ncc3ccc(-c4csc(CN5CCOCC5)c4)nc3n2)cc1 [Compound 79, 4-[7-(5-Morpholin-4-ylmethyl-thiophen-3-yl)-pyrido[2,3-d]pyrimidin-2-yl]-phenol]	> 268 °C
OCCNc1nc(NCc2ccccc2)c2ncc(Cl)cc2n1 [Compound 82, 4-Benzylamino-7-chloro-2-(2-hydroxyethylamino)-pyrido[3,2-d]pyrimidine]	106 to 107 °C
OCCNc1nc(NCc2ccccc2)c2ncc(Nc3ncncn3)cc2n1 [Compound 88, 4-Benzylamino-2-(2-hydroxyethylamino)-7-(1,3,5-triazinylamino)-pyrido[3,2-d]pyrimidine]	202 to 203 °C
